Blank lines part the entries; values can stand above or below the molecule they belong to.
Key:
B-16 melanoma cells = test: Melanin production inhibiting effect on chromatophore (visual whiteness of cell pellets); type: cell-based; set-up: key: −: Equal to solvent control (black); +: Slightly different from solvent control (dark gray); ++: Markedly different from solvent control (pale gray); +++: No coloring of cells (white); conditions: 3 days culture with sample
Protocol: A plastic culture flask (25 cm^2) was inoculated with 8×10^4 B-16 melanoma cells, which were incubated in a DMEN medium (Nippon Suisan Kaisha, Ltd.) containing 10% serum in the presence of 5% CO2 at 37° C. After 3 days, a test sample diluted with EtOH was added to the medium at a concentration of 0.4, 0.8, 1.6, 3.1 and 6.2 ppm and the culture was continued for further 3 days.
After completion of the culture to remove the culture followed by washing with a phosphate buffer (hereinafter referred to as PBS), the cells were removed from the flask using a medium containing trypsin and EDTA (ethylenediamine tetraacetic acid) and the cells were recovered from the cell suspension by centrifugation.
The cells thus obtained were washed once with PBS and then the pellets were evaluated visually for their whiteness.
Similarly to Example 16, the melanin production inhibiting effects of arbutin, tetrahydroionol, β-ionone, dihydro-β-ionone and the novel compounds of the invention (1′i, 1″i, 1^4′i) on a chromatophore were determined.

[1] = Patch test of 2% lanolin paste on upper arm of panelists; type: in vivo, human; conditions: 2% by weight in lanolin paste, 24 h patch on upper arm, 30 panelists, observed at removal and 24 h later

SMILES: CC(C)CCCC(=O)C=CC1C(C)CCCC1(C)C (stereo not drawn) [Compound 1′k, 1-(2′,2′,6′-Trimethylcyclohexan-1′-yl)-7-methyloctan-1-en-3-one]
whiteness of cell pellets, evaluated visually (B-16 melanoma cells; 1.6 ppm): ++
whiteness of cell pellets, evaluated visually (B-16 melanoma cells; 3.1 ppm): +++
whiteness of cell pellets, evaluated visually (B-16 melanoma cells; 6.2 ppm): +++

SMILES: CCCC(O)C=CC1C(C)CCCC1(C)C (stereo not drawn) [1″c]
whiteness of cell pellets, evaluated visually (B-16 melanoma cells; 1.6 ppm): ++
whiteness of cell pellets, evaluated visually (B-16 melanoma cells; 3.1 ppm): +++
whiteness of cell pellets, evaluated visually (B-16 melanoma cells; 6.2 ppm): +++

SMILES: CC(C)C(O)CCC1C(C)CCCC1(C)C (stereo not drawn) [1^4′e]
whiteness of cell pellets, evaluated visually (B-16 melanoma cells; 1.6 ppm): +
whiteness of cell pellets, evaluated visually (B-16 melanoma cells; 3.1 ppm): ++
whiteness of cell pellets, evaluated visually (B-16 melanoma cells; 6.2 ppm): +++

SMILES: CCCCCC(O)C(C)=CC1C(C)CCCC1(C)C (stereo not drawn) [Compound 1″x, 1-(2′,2′,6′-Trimethylcyclohexan-1′-yl)-2-methyloctan-1-en-3-ol]
whiteness of cell pellets, evaluated visually (B-16 melanoma cells; 1.6 ppm): +
whiteness of cell pellets, evaluated visually (B-16 melanoma cells; 3.1 ppm): ++
whiteness of cell pellets, evaluated visually (B-16 melanoma cells; 6.2 ppm): +++

SMILES: CCCCCC(=O)C(C)=CC1C(C)CCCC1(C)C (stereo not drawn) [1′x, 1-(2′,2′,6′-Trimethylcyclohexan-1′-yl)-2-methyloctan-1-en-3-one]
whiteness of cell pellets, evaluated visually (B-16 melanoma cells; 1.6 ppm): +
whiteness of cell pellets, evaluated visually (B-16 melanoma cells; 3.1 ppm): ++
whiteness of cell pellets, evaluated visually (B-16 melanoma cells; 6.2 ppm): +++

SMILES: CC(O)CCC1C(C)CCCC1(C)C (stereo not drawn) [Tetrahydroionol, tetrahydroionol, reference compound]
whiteness of cell pellets, evaluated visually (B-16 melanoma cells; 0.4 ppm): −
whiteness of cell pellets, evaluated visually (B-16 melanoma cells; 0.8 ppm): −
whiteness of cell pellets, evaluated visually (B-16 melanoma cells; 1.6 ppm): −
whiteness of cell pellets, evaluated visually (B-16 melanoma cells; 3.1 ppm): +
whiteness of cell pellets, evaluated visually (B-16 melanoma cells; 6.2 ppm): ++

SMILES: CCC(O)C=CC1C(C)CCCC1(C)C (stereo not drawn) [1″b]
whiteness of cell pellets, evaluated visually (B-16 melanoma cells; 1.6 ppm): +
whiteness of cell pellets, evaluated visually (B-16 melanoma cells; 3.1 ppm): ++
whiteness of cell pellets, evaluated visually (B-16 melanoma cells; 6.2 ppm): +++

SMILES: OC[C@H]1O[C@@H](Oc2ccc(O)cc2)[C@H](O)[C@@H](O)[C@@H]1O [ARBUTIN, arbutin, reference compound]
whiteness of cell pellets, evaluated visually (B-16 melanoma cells; 0.4 ppm): −
whiteness of cell pellets, evaluated visually (B-16 melanoma cells; 0.8 ppm): −
whiteness of cell pellets, evaluated visually (B-16 melanoma cells; 1.6 ppm): −
whiteness of cell pellets, evaluated visually (B-16 melanoma cells; 3.1 ppm): −
whiteness of cell pellets, evaluated visually (B-16 melanoma cells; 6.2 ppm): +

SMILES: CC(C)=CCCC(=O)C=CC1C(C)CCCC1(C)C (stereo not drawn) [Compound 1′l, 1-(2′,2′,6′-Trimethylcyclohexan-1′-yl)-7-methyloctan-1,6-dien-3-one]
whiteness of cell pellets, evaluated visually (B-16 melanoma cells; 1.6 ppm): +
whiteness of cell pellets, evaluated visually (B-16 melanoma cells; 3.1 ppm): +++
whiteness of cell pellets, evaluated visually (B-16 melanoma cells; 6.2 ppm): +++

SMILES: CC(C)CC(=O)C=CC1C(C)CCCC1(C)C (stereo not drawn) [1′g]
whiteness of cell pellets, evaluated visually (B-16 melanoma cells; 1.6 ppm): +
whiteness of cell pellets, evaluated visually (B-16 melanoma cells; 3.1 ppm): ++
whiteness of cell pellets, evaluated visually (B-16 melanoma cells; 6.2 ppm): +++

SMILES: CC(C)CC(O)CCC1C(C)CCCC1(C)C (stereo not drawn) [1^4′g]
whiteness of cell pellets, evaluated visually (B-16 melanoma cells; 1.6 ppm): ++
whiteness of cell pellets, evaluated visually (B-16 melanoma cells; 3.1 ppm): +++
whiteness of cell pellets, evaluated visually (B-16 melanoma cells; 6.2 ppm): +++

SMILES: CC(C)CC(O)C=CC1C(C)CCCC1(C)C (stereo not drawn) [1″g]
whiteness of cell pellets, evaluated visually (B-16 melanoma cells; 1.6 ppm): +++
whiteness of cell pellets, evaluated visually (B-16 melanoma cells; 3.1 ppm): +++
whiteness of cell pellets, evaluated visually (B-16 melanoma cells; 6.2 ppm): +++

SMILES: CC(C)CCCC(O)C=CC1C(C)CCCC1(C)C (stereo not drawn) [Compound 1″k, 1-(2′,2′,6′-Trimethylcyclohexan-1′-yl)-7-methyloctan-1-en-3-ol]
whiteness of cell pellets, evaluated visually (B-16 melanoma cells; 1.6 ppm): +++
whiteness of cell pellets, evaluated visually (B-16 melanoma cells; 3.1 ppm): +++
whiteness of cell pellets, evaluated visually (B-16 melanoma cells; 6.2 ppm): +++

SMILES: CC(=O)CCC1=C(C)CCCC1(C)C [Dihydro-β-ionone, dihydro-β-ionone, reference compound]
whiteness of cell pellets, evaluated visually (B-16 melanoma cells; 0.4 ppm): −
whiteness of cell pellets, evaluated visually (B-16 melanoma cells; 0.8 ppm): −
whiteness of cell pellets, evaluated visually (B-16 melanoma cells; 1.6 ppm): −
whiteness of cell pellets, evaluated visually (B-16 melanoma cells; 3.1 ppm): +
whiteness of cell pellets, evaluated visually (B-16 melanoma cells; 6.2 ppm): ++

SMILES: CCCCCCCC(O)C=CC1C(C)CCCC1(C)C (stereo not drawn) [Compound 1″m, 1-(2′,2′,6′-Trimethylcyclohexan-1′-yl)-decan-1-en-3-ol]
whiteness of cell pellets, evaluated visually (B-16 melanoma cells; 1.6 ppm): +
whiteness of cell pellets, evaluated visually (B-16 melanoma cells; 3.1 ppm): +
whiteness of cell pellets, evaluated visually (B-16 melanoma cells; 6.2 ppm): +++

SMILES: CCC(O)CCC1C(C)CCCC1(C)C (stereo not drawn) [1^4′b]
whiteness of cell pellets, evaluated visually (B-16 melanoma cells; 1.6 ppm): +
whiteness of cell pellets, evaluated visually (B-16 melanoma cells; 3.1 ppm): ++
whiteness of cell pellets, evaluated visually (B-16 melanoma cells; 6.2 ppm): +++

SMILES: CCCCCCCC(=O)C=CC1C(C)CCCC1(C)C (stereo not drawn) [Compound 1′m, 1-(2′,2′,6′-Trimethylcyclohexan-1′-yl)-decan-1-en-3-one]
whiteness of cell pellets, evaluated visually (B-16 melanoma cells; 1.6 ppm): +
whiteness of cell pellets, evaluated visually (B-16 melanoma cells; 3.1 ppm): +
whiteness of cell pellets, evaluated visually (B-16 melanoma cells; 6.2 ppm): +++

Number of panelists exhibiting abnormality [1]: 0
Number ot panelists exhibiting no abnormality [1]: 30
SMILES: CCCCCC(=O)C=CC1C(C)CCCC1(C)C (stereo not drawn) [Compound 1′i, 1-(2′,2′,6′-Trimethylcyclohexan-1′-yl)octan-1-en-3-one]
whiteness of cell pellets, evaluated visually (B-16 melanoma cells; 0.4 ppm): −
whiteness of cell pellets, evaluated visually (B-16 melanoma cells; 0.8 ppm): +
whiteness of cell pellets, evaluated visually (B-16 melanoma cells; 1.6 ppm): +++
whiteness of cell pellets, evaluated visually (B-16 melanoma cells; 3.1 ppm): +++
whiteness of cell pellets, evaluated visually (B-16 melanoma cells; 6.2 ppm): +++

SMILES: CCC(=O)C=CC1C(C)CCCC1(C)C (stereo not drawn) [1′b]
whiteness of cell pellets, evaluated visually (B-16 melanoma cells; 1.6 ppm): +
whiteness of cell pellets, evaluated visually (B-16 melanoma cells; 3.1 ppm): ++
whiteness of cell pellets, evaluated visually (B-16 melanoma cells; 6.2 ppm): +++

SMILES: CCCCCC(O)CCC1C(C)CCCC1(C)C (stereo not drawn) [Compound 1^4′i, 1-(2′,2′,6′-Trimethylcyclohexan-1′-yl)-octan-3-ol]
whiteness of cell pellets, evaluated visually (B-16 melanoma cells; 0.4 ppm): −
whiteness of cell pellets, evaluated visually (B-16 melanoma cells; 0.8 ppm): −
whiteness of cell pellets, evaluated visually (B-16 melanoma cells; 1.6 ppm): ++
whiteness of cell pellets, evaluated visually (B-16 melanoma cells; 3.1 ppm): +++
whiteness of cell pellets, evaluated visually (B-16 melanoma cells; 6.2 ppm): +++

SMILES: CCCC(=O)C=CC1C(C)CCCC1(C)C (stereo not drawn) [1′c]
whiteness of cell pellets, evaluated visually (B-16 melanoma cells; 1.6 ppm): +
whiteness of cell pellets, evaluated visually (B-16 melanoma cells; 3.1 ppm): ++
whiteness of cell pellets, evaluated visually (B-16 melanoma cells; 6.2 ppm): +++

SMILES: CC1CCCC(C)(C)C1C=CC(=O)C(C)(C)C (stereo not drawn) [1′h]
whiteness of cell pellets, evaluated visually (B-16 melanoma cells; 1.6 ppm): +
whiteness of cell pellets, evaluated visually (B-16 melanoma cells; 3.1 ppm): ++
whiteness of cell pellets, evaluated visually (B-16 melanoma cells; 6.2 ppm): +++

SMILES: CC(=O)/C=C/C1=C(C)CCCC1(C)C [β-Ionone, β-ionone, reference compound]
whiteness of cell pellets, evaluated visually (B-16 melanoma cells; 0.4 ppm): −
whiteness of cell pellets, evaluated visually (B-16 melanoma cells; 0.8 ppm): −
whiteness of cell pellets, evaluated visually (B-16 melanoma cells; 1.6 ppm): −
whiteness of cell pellets, evaluated visually (B-16 melanoma cells; 3.1 ppm): +
whiteness of cell pellets, evaluated visually (B-16 melanoma cells; 6.2 ppm): ++

Number of panelists exhibiting abnormality [1]: 0
Number ot panelists exhibiting no abnormality [1]: 30
SMILES: CCCCCC(O)C=CC1C(C)CCCC1(C)C (stereo not drawn) [Compound 1″i, 1-(2′,2′,6′-trimethylcyclohexan-1′-yl)octan-1-en-3-ol]
whiteness of cell pellets, evaluated visually (B-16 melanoma cells; 0.4 ppm): −
whiteness of cell pellets, evaluated visually (B-16 melanoma cells; 0.8 ppm): +
whiteness of cell pellets, evaluated visually (B-16 melanoma cells; 1.6 ppm): +++
whiteness of cell pellets, evaluated visually (B-16 melanoma cells; 3.1 ppm): +++
whiteness of cell pellets, evaluated visually (B-16 melanoma cells; 6.2 ppm): +++

SMILES: CCCCCCCC(O)CCC1C(C)CCCC1(C)C (stereo not drawn) [Compound 1^4′m, 1-(2′,2′,6′-Trimethylcyclohexan-1′-yl)-decan-3-ol]
whiteness of cell pellets, evaluated visually (B-16 melanoma cells; 1.6 ppm): +
whiteness of cell pellets, evaluated visually (B-16 melanoma cells; 3.1 ppm): +
whiteness of cell pellets, evaluated visually (B-16 melanoma cells; 6.2 ppm): +

SMILES: CCC(O)C(C)=CC1C(C)CCCC1(C)C (stereo not drawn) [1″u]
whiteness of cell pellets, evaluated visually (B-16 melanoma cells; 1.6 ppm): +
whiteness of cell pellets, evaluated visually (B-16 melanoma cells; 3.1 ppm): ++
whiteness of cell pellets, evaluated visually (B-16 melanoma cells; 6.2 ppm): +++

SMILES: CCCC(O)CCC1C(C)CCCC1(C)C (stereo not drawn) [1^4′c]
whiteness of cell pellets, evaluated visually (B-16 melanoma cells; 1.6 ppm): +
whiteness of cell pellets, evaluated visually (B-16 melanoma cells; 3.1 ppm): ++
whiteness of cell pellets, evaluated visually (B-16 melanoma cells; 6.2 ppm): +++

SMILES: CC(C)=CCCC(O)C=CC1C(C)CCCC1(C)C (stereo not drawn) [Compound 1″l, 1-(2′,2′,6′-Trimethylcyclohexan-1′-yl)-7-methyloctan-1,6-dien-3-ol]
whiteness of cell pellets, evaluated visually (B-16 melanoma cells; 1.6 ppm): +++
whiteness of cell pellets, evaluated visually (B-16 melanoma cells; 3.1 ppm): +++
whiteness of cell pellets, evaluated visually (B-16 melanoma cells; 6.2 ppm): +++
